These results are taken from article PMC8547495 (Journal of medicinal chemistry, 2021).

Entries after “also recorded” stand apart in the source; their conditions may differ. Bounds are passed on as bounds.

For one data set, the system named is A549 cells. The conditions noted are these: for cytotoxicity compared with 1: at 100 μM; for concentration below which cytotoxicity was not observed: under the antiviral assay conditions, A549-hACE2.
A short description of the next data set: in vivo. Particulars: male, C57BL/6, mouse, ip, 50 mg/kg.
Data set [1] has as its target T1, SARS-CoV-2 PLpro (Severe acute respiratory syndrome coronavirus 2, UniProt P0DTD1). The experiment in a line: biochemical. It is filed as binding.
The target in data set [2] is T1, SARS-CoV-2 PLpro. Format: biochemical. The conditions noted are these: for PLpro inhibition potency in words: compared with GRL0617 / parent.
The subject of the next data set is SARS-CoV-2. The conditions noted are these: at 33 μM, the maximum soluble dose; cited from earlier work.
For data set [3] the following is noted: microsomes, 2 μM.
Another data set relates to SARS-CoV-2 USA/WA1/2020. Format: cell-based. The conditions noted are these: 20 μM, remdesivir 10 μM / 20 μM.

What is called Cmax is the maximum level reached in the sampled fluid or tissue. Turning to `Cc1ccc(NC2CNC2)cc1C(=O)N[C@H](C)c1cccc(-c2ccc(CNC3CCCC3)s2)c1` [XR8-23], in the data set on A549 cells, the “cytotoxicity compared with 1” value is reported as “more cytotoxic than 1” and the “concentration below which cytotoxicity was not observed” value is below 10 µM. This compound also displayed a Cmax in the data set “in vivo” of 12 to 13 µM.
Usually Kd stands for the concentration at which binding is half-saturated. Low readings indicate higher affinity, high ones lower affinity. The term IC50 denotes the concentration that inhibits the measured activity by half. The compound `CNC(=O)C[C@@H](NC(=O)c1cc(N(C)C2CNC2)ccc1C)c1cccc2ccccc12` [DY2-116] yielded a Kd on SARS-CoV-2 PLpro [1] above 1000 µM. In addition, on SARS-CoV-2 PLpro [2], the “PLpro inhibition potency in words” value was “almost completely inactive”. The IC50 on SARS-CoV-2 PLpro [2] (read-out: Enzyme inhibition IC50, SARS-CoV-2 PLpro, Z-RLRGG-AMC substrate) was above 100 µM.
`COc1cc(CNC(=O)C2CCN(C(C)c3cccc4ccccc34)CC2)ccn1` (racemic) [rac5c]: the “antiviral activity compared to remdesivir” value with SARS-CoV-2 was 60%.
For `CC[C@@H](NC(=O)c1cc(N(C)C2CNC2)ccc1C)c1cccc2ccccc12` [ZN-3-61], on SARS-CoV-2 PLpro [2], the “PLpro inhibition potency in words” value was “significant decrease in potency”.
Take `Cc1ccc(NC2CNC2)cc1C(=O)N[C@H](C)c1cccc(-c2cccs2)c1` [ZN-3-80]: the “human liver microsome stability in words” value in data set [3] is “more stable than GRL0617”.
Turning to `Cc1ccc(N)cc1C(=O)N[C@H](CCO)c1cccc2ccccc12` [DY2-97], the “PLpro inhibition potency in words” value at SARS-CoV-2 PLpro [2] is “almost completely inactive”.
As for `Cc1ccc(NC2CNC2)cc1C(=O)N[C@H](C)c1cccc2ccccc12` [ZN-2-184], the “improvement in affinity relative to GRL0617” value at SARS-CoV-2 PLpro [1] (SPR) was “two-fold improvement in affinity”. The “gain in binding stabilization from SPR affinity” value on SARS-CoV-2 PLpro [1] (relative to GRL0617, engaging Site I or BL2 groove alone) is listed as 0.57 kcal/mol.
As for `Cc1ccc(NC2CNC2)cc1C(=O)N[C@H](C)c1cccc(-c2ccc(CN3CCCC3)s2)c1` [XR8-24], in the data set with A549 cells, the “cytotoxicity compared with 1” value is recorded as “more cytotoxic than 1” and the “concentration below which cytotoxicity was not observed” value was below 50 µM. For the same compound, in the data set with SARS-CoV-2 USA/WA1/2020, the “effect of treatment on viral RNA versus remdesivir” value is listed as “not significantly different from that of remdesivir; also recorded: not significantly different from the FDA-approved RdRp inhibitor remdesivir”. The compound also came in with a Cmax in “in vivo” of 12 to 13 µM.
